In patent US4751217A, “Physiologically active substances named SEN-366” (Nippon Shinyaku Co., Ltd., priority 1984, dated 1988):
In brackets after ≈: the same amount, converted by molar mass.

Key:
Type in all cases: cell-based
[1] = system: platelet aggregation (collagen); experiment: Inhibitory action against platelet aggregation, inducer collagen; conditions: for IC50 Collagen 10 μg/ml: Table 1, rabbit PRP; for IC50: Oryctolagus cuniculus, Platelet, collagen 10 μg/ml, rabbit PRP
Experimental: (§1) Inhibitory Action against Platelet Aggregation:
(§2) (1) Materials and Method:
(§3) The sample is tested after dissolved in dimethyl sulfoxide. The preparation is conducted so as to make the final concentration of the solvent 1%. Dimethyl sulfoxide of the same concentration is used as a control. As to inducers for platelet aggregation, ADP (final concentration: 5 μm), AA (arachidonic acid) (final concentration: 150 μM) and collagen (final concentration: 10 μg/ml) are used.
(§4) (2) Preparation of platelet:
Blood is taken from total neck artery of male rabbits of 2.0-2.5 kg body weight. […] The precipitate is further centrifuged at 1600×g for 10 minutes and the resulting supernatant liquid is used as plasma with poor platelet (hereinafter abbreviated as PPP).
(§5) (3) Method for Measuring Aggregation Power:
(§6) A measuring apparatus for platelet aggregation is used and the changes in absorbancy by the aggregation with an elapse of time are recorded.
(§7) Thus, 200 microliters of PRP is taken, its difference between PPP is adjusted to a certain value, then 25 microliters of control solution or test solution is added, the mixture is stirred (1000 rpm) for 1 minutes, 25 microliters of aggregation inducer is added, and the changes in absorbancy are recorded. The inhibitory ratio is calculated from the following expression from the maximum aggregation ratio of the control (A in %) and that of the test solution (B in %): [formula]
as §3, with “μM),” for “μm),”
(§8) Blood is taken from total neck artery of male rabbits of 2.0-2.5 kg body weight. To the blood is added 1/10 volume of 3.8% citric acid solution, the mixture is gently stirred, centrifuged 1300×g for 2 minutes, and the resulting supernatant liquid is used as plasma with abundant platelet (hereinafter abbreviated as PRP). The precipitate is further centrifuged at 1600×g for 10 minutes and the resulting supernatant liquid is used as plasma with poor platelet (hereinafter abbreviated as PPP).
as §7, with “minute,” for “minutes,”

[2] = system: platelet aggregation (ADP); experiment: Inhibitory action against platelet aggregation, inducer ADP; conditions: for IC50: Oryctolagus cuniculus, Platelet, ADP 5 μM, rabbit PRP; for IC50 ADP 5 μM: Table 1, rabbit PRP
Experimental: as §1, §2, §3, §4
as §8, with “sodium citrate” for “citric acid”
as §5, §6, §7
(§9) Inhibitory ratios with varied test solution concentrations are calculated and the IC50 (50% inhibitory concentration) is calculated therefrom.
as §3, with “μM),” for “μm),”
as §8
as §7, with “minute,” for “minutes,”

[3] = system: platelet aggregation (AA); experiment: Inhibitory action against platelet aggregation, inducer arachidonic acid (AA); conditions: for IC50: Oryctolagus cuniculus, Platelet, AA 150 μM, rabbit PRP; for IC50 AA 150 μM: Table 1, rabbit PRP
Experimental: as §1, §2, §3, §4
as §8, with “sodium citrate” for “citric acid”
as §5, §6, §7, §9
as §3, with “μM),” for “μm),”
as §8
as §7, with “minute,” for “minutes,”

SMILES: CC(=O)OC1CCC(OC2CCC(OC3C=CC(=O)C(C)O3)C(C)O2)C(C)O1 (stereo not drawn) [SEN-366-A1]
- IC50 Collagen 10 μg/ml ([1]; listed as A1): < 0.1 µg/mL
- IC50 ([2]; Table 1): 0.22 µg/mL (≈ 0.552 µM)
- IC50 ([3]; Table 1): 1.2 µg/mL (≈ 3.01 µM)

SMILES: CC(=O)OC1CCC(OC2CCC(OC3CCC(=O)C(C)O3)C(C)O2)C(C)O1 (stereo not drawn) [SEN-366-A2]
- IC50 ([1]; Table 1): 0.54 µg/mL (≈ 1.35 µM)
- IC50 ADP 5 μM ([2]; listed as A2): 1.6 µg/mL (≈ 4 µM)
- IC50 ([3]; Table 1): 6 µg/mL (≈ 15 µM)

SMILES: CC(=O)OC1CCC(OC2CCC(OC3C=CC(=O)C(C)O3)C(C)O2)C(C)O1 (stereo not drawn) [SEN-366-A3]
- IC50 Collagen 10 μg/ml ([1]; listed as A3): 0.47 µg/mL (≈ 1.18 µM)
- IC50 ADP 5 μM ([2]; listed as A3): 0.44 µg/mL (≈ 1.1 µM)
- IC50 AA 150 μM ([3]; listed as A3): 1.6 µg/mL (≈ 4.02 µM)

SMILES: CC(=O)OC1CCC(OC2CCC(OC3CCC(=O)C(C)O3)C(C)O2)C(C)O1 (stereo not drawn) [SEN-366-A4]
- IC50 Collagen 10 μg/ml ([1]; listed as A4): 0.27 µg/mL (≈ 0.674 µM)
- IC50 ADP 5 μM ([2]; listed as A4): > 10 µg/mL
- IC50 AA 150 μM ([3]; listed as A4): 5.4 µg/mL (≈ 13.5 µM)

SMILES: CC1OC(OC2CCC(OC3CCC(OC(=O)c4ccccc4)OC3C)OC2C)C=CC1=O (stereo not drawn) [SEN-366-B1]
- IC50 ([1]; Table 1): 0.16 µg/mL (≈ 0.347 µM)
- IC50 ([2]; Table 1): 1.1 µg/mL (≈ 2.39 µM)
- IC50 ([3]; Table 1): 0.32 µg/mL (≈ 0.695 µM)

SMILES: CC1OC(OC2CCC(OC3CCC(OC(=O)c4ccccc4)OC3C)OC2C)CCC1=O (stereo not drawn) [SEN-366-B2]
- IC50 ([1]; Table 1): 1.7 µg/mL (≈ 3.68 µM)
- IC50 ([2]; Table 1): 5.7 µg/mL (≈ 12.3 µM)
- IC50 ([3]; Table 1): 1.6 µg/mL (≈ 3.46 µM)

SMILES: CC1OC(OC2CCC(OC3CCC(OC(=O)c4ccccc4)OC3C)OC2C)C=CC1=O (stereo not drawn) [SEN-366-B3]
- IC50 Collagen 10 μg/ml ([1]; listed as B3): 0.17 µg/mL (≈ 0.369 µM)
- IC50 ADP 5 μM ([2]; listed as B3): 1.0 µg/mL (≈ 2.17 µM)
- IC50 AA 150 μM ([3]; listed as B3): 0.55 µg/mL (≈ 1.19 µM)

SMILES: CC1OC(OC2CCC(OC3CCC(OC(=O)c4ccccc4)OC3C)OC2C)CCC1=O (stereo not drawn) [SEN-366-B4]
- IC50 Collagen 10 μg/ml ([1]; listed as B4): 2.9 µg/mL (≈ 6.27 µM)
- IC50 ADP 5 μM ([2]; listed as B4): 6.5 µg/mL (≈ 14.1 µM)
- IC50 AA 150 μM ([3]; listed as B4): 1.2 µg/mL (≈ 2.59 µM)

SMILES: CCCC(=O)OC1CCC(OC2CCC(OC3C=CC(=O)C(C)O3)C(C)O2)C(C)O1 (stereo not drawn) [SEN-366-BT1]
- IC50 ([1]; Table 1): 0.17 µg/mL (≈ 0.399 µM)
- IC50 ADP 5 μM ([2]; listed as BT1): 1.1 µg/mL (≈ 2.58 µM)
- IC50 AA 150 μM ([3]; listed as BT1): 1.55 µg/mL (≈ 3.63 µM)

SMILES: CCCC(=O)OC1CCC(OC2CCC(OC3CCC(=O)C(C)O3)C(C)O2)C(C)O1 (stereo not drawn) [SEN-366-BT2]
- IC50 Collagen 10 μg/ml ([1]; listed as BT2): 0.53 µg/mL (≈ 1.24 µM)
- IC50 ADP 5 μM ([2]; listed as BT2): 1.35 µg/mL (≈ 3.15 µM)
- IC50 AA 150 μM ([3]; listed as BT2): 2.1 µg/mL (≈ 4.9 µM)

SMILES: CCCC(=O)OC1CCC(OC2CCC(OC3C=CC(=O)C(C)O3)C(C)O2)C(C)O1 (stereo not drawn) [SEN-366-BT3]
- IC50 Collagen 10 μg/ml ([1]; listed as BT3): 0.16 µg/mL (≈ 0.375 µM)
- IC50 ADP 5 μM ([2]; listed as BT3): 0.47 µg/mL (≈ 1.1 µM)
- IC50 AA 150 μM ([3]; listed as BT3): 0.64 µg/mL (≈ 1.5 µM)

SMILES: CCCC(=O)OC1CCC(OC2CCC(OC3CCC(=O)C(C)O3)C(C)O2)C(C)O1 (stereo not drawn) [SEN-366-BT4]
- IC50 Collagen 10 μg/ml ([1]; listed as BT4): 1.6 µg/mL (≈ 3.73 µM)
- IC50 ADP 5 μM ([2]; listed as BT4): 5.3 µg/mL (≈ 12.4 µM)
- IC50 AA 150 μM ([3]; listed as BT4): 5.7 µg/mL (≈ 13.3 µM)

SMILES: CC1OC(OC2CCC(OC3CCC(OC(=O)c4ccc(Cl)cc4)OC3C)OC2C)C=CC1=O (stereo not drawn) [SEN-366-CB1]
- IC50 ([1]; Table 2): 0.06 µg/mL (≈ 0.121 µM)
- IC50 ([2]; Table 2): 0.3 µg/mL (≈ 0.606 µM)
- IC50 ([3]; Table 2): 1.1 µg/mL (≈ 2.22 µM)
